Several values for one entry are separate records, joined by “and”; a condition that tells them apart may be missing. Equal values may be shown once. Read-outs that look alike come from different tables or passages of the source. Marks after values point to notes of the source that are not given here.
Tests used:
[1] = system: adjuvant-induced arthritis; test: Adjuvant-induced arthritis model, colestyramine 4 hours after compound 1 (Example 3); format: in vivo; conditions: for Increase in body weight / Reduction in arthritis score / Reduction in paw swelling / Surviving animals: orally
Protocol: Example 3 illustrates an experiment to determine whether the action of the minimally effective dose of compound 1 is reduced by administration of colestyramine at a time interval of 4 hours. This was investigated in the adjuvant-induced arthritis model. The model was carried out according to Example 1. Compound 1 was administered orally in 1% CMC daily from the start to the end of the investigation in a dose of 2.5 mg/kg/day. Colestyramine was likewise administered orally in 1% CMC 4 hours after the administration of compound 1. The corresponding control groups received equal volumes of a 1% CMC at the corresponding times.
In Example 3, we investigated whether relatively constant blood levels existing over a fairly long time were responsible for the desired effects of compound 1 on the immune system, or whether blood levels occurring for a short time (peak blood levels) of compound 1 caused this effect.
For this, compound 1 was administered orally once daily at the lowest efficacious dose of 2.5 mg/kg/day (see Example 1). In the corresponding comparison groups, colestyramine was administered 4 hours after administration of compound 1 in order to lower the blood levels of compound 1 in an accelerated manner after the absorption phase had taken place. By means of this, the action of blood levels of compound 1 existing for different lengths of time on the immunologically related pathological processes in adjuvant-induced arthritis in the rat was investigated.

[2] = Tolerability of constant (mini-infusion pump) versus pulse-like (oral) blood levels (Example 5); format: in vivo, rat; conditions: male, Lewis, rat, plasma, subcutaneous, read-out: Compound 1 blood plasma level (day 27)
Protocol: (§1) In order to attain constant blood levels, a mini-infusion pump was subcutaneously implanted into experimental animals. The mini-infusion pumps contained 2 ml of a 15% strength ethanolic solution of compound 1, which was continuously released over 28 days. Doses of 2.5, 5, 10 and 25 mg/kg/day were employed. For comparison, animals which received the same daily doses of the compound 1, but administered orally, were implanted with mini-infusion pumps; these, however, were filled with only the vehicle (15% ethanol in water). A 1% strength CMC was additionally administered orally to animals which received the compound 1 via mini-infusion pumps. The survival of the animals was taken as a course parameter. Additionally, blood was taken on day 5 and day 27 in order to determine the blood levels of compound 1. Blood was taken from animals 4 hours after oral administration of compound 1. The group was comprised of 6 male Lewis rats having a body weight of approximately 210 g. Corresponding to the preceding experiments, adjuvant arthritis was induced in the animals on day 5.
(§2) For the attainment of constant blood levels of compound 1, the animals were implanted subcutaneously with a mini-infusion pump which supplied compound 1 to the animals continuously for 28 days. By means of this pump, constant blood levels of compound 1 were attained. Thus long half-lives of compound 1, such as are observed in humans, were simulated.
(§3) For the comparison group, animals were treated with the identical daily dose of compound 1, but received the substance orally rather than by mini-infusion pump.
(§4) In this experiment, the tolerability of the compound 1 with a short half-life (compound 1 orally administered) was compared with the tolerability of the compound 1 with a long half-life (compound 1 by pump with a constant infinite half-life). The doses employed were 2.5 mg/kg/day, 5 mg/kg/day, 10 mg/kg/day and 25 mg/kg/day. The number of animals surviving the treatment was used as a measure of the tolerability. The tolerability was moreover compared with respect to the observed blood levels.

Lewis rats = test: as above; format: in vivo, rat
Protocol: as §1, §2, §3, §4

[3] = Half-life in the blood plasma of humans; format: in vivo; conditions: human
Protocol: The measurement is determined by calculating the half-life of a nucleotide synthesis inhibitor in the blood of a mammal, which is relevant for pharmacokinetic ratios in humans, or in humans in phase I clinical trial development, and comparing it with that of a known nucleotide synthesis inhibitor. The term “half-life” is understood as meaning the time in which the concentration of the nucleotide synthesis inhibitor in the blood plasma is halved. This invention for finding nucleotide synthesis inhibitors which have lower side effects therefore includes

[4] = 2.5 mg/kg/day of compound 1 alone
[5] = 2.5 mg/kg/day of compound 1 and 1000 mg/kg/day of cholestyramine 4 hours later

In the case of `C/C(O)=C(\C#N)C(=O)Nc1ccc(C(F)(F)F)cc1` [compound 1, N-(4-trifluoromethylphenyl)-2-cyano-3-hydroxycrotonamide], the “desired action on adjuvant-induced arthritis with versus without colestyramine 4 hours after compound 1” value ([1]; 2.5 mg/kg/day of compound 1) is reported as “No difference was seen”, the “Increase in body weight” value [1, 4] is reported as 20% and the “Reduction in arthritis score” value [1, 4] is reported as 70%. For the same compound, the “Reduction in paw swelling” value [1, 4] was 78%, the Surviving animals [1, 4] was 100% and the “Increase in body weight” value [1, 5] was 20%. For the same compound, the “Reduction in arthritis score” value [1, 5] was 81%, the “Reduction in paw swelling” value [1, 5] was 86% and the Surviving animals [1, 5] was 100%. It also gave a concentration at 27 day ([2]; 2.5 mg/kg/day mini-infusion) of 2340 ng/mL, a concentration at 27 day ([2]; 5 mg/kg/day mini-infusion) of 4180 ng/mL and a concentration at 27 day ([2]; 10 mg/kg/day mini-infusion) of 6720 ng/mL. The Body weight increase (Lewis rats; 2.5 mg/kg/day mini-infusion) was “+22%”, the “Compound 1 blood plasma level (day 5)” value (Lewis rats; 2.5 mg/kg/day mini-infusion) was 2.05 μg/ml ± and the “Compound 1 blood plasma level (day 27)” value (Lewis rats; 2.5 mg/kg/day mini-infusion) was 2.34 μg/ml ±. For the same compound, the Surviving animals (Lewis rats; 2.5 mg/kg/day mini-infusion) was 100%, the Body weight increase (Lewis rats; 2.5 mg/kg/day p.o.) was “+29%” and the Surviving animals (Lewis rats; 2.5 mg/kg/day p.o.) was 100%. For the same compound, the Body weight increase (Lewis rats; 5 mg/kg/day mini-infusion) was “+26%”, the “Compound 1 blood plasma level (day 5)” value (Lewis rats; 5 mg/kg/day mini-infusion) was 3.57 μg/ml ± and the “Compound 1 blood plasma level (day 27)” value (Lewis rats; 5 mg/kg/day mini-infusion) was 4.18 μg/ml ±. The Surviving animals (Lewis rats; 5 mg/kg/day mini-infusion) was 100%, the Body weight increase (Lewis rats; 5 mg/kg/day p.o.) was “+25%” and the Surviving animals (Lewis rats; 5 mg/kg/day p.o.) was 100%. For the same compound, the “Compound 1 blood plasma level (day 5)” value (Lewis rats; 5 mg/kg/day p.o., 4 hours after oral administration) was 14.31 µg/µg/mL, the Body weight increase (Lewis rats; 10 mg/kg/day mini-infusion) was “+29%” and the “Compound 1 blood plasma level (day 5)” value (Lewis rats; 10 mg/kg/day mini-infusion) was 4.55 μg/ml ±. The “Compound 1 blood plasma level (day 27)” value (Lewis rats; 10 mg/kg/day mini-infusion) was 6.72 μg/ml ±, the Surviving animals (Lewis rats; 10 mg/kg/day mini-infusion) was 100% and the Body weight increase (Lewis rats; 10 mg/kg/day p.o.) was “+27%”. For the same compound, the Surviving animals (Lewis rats; 10 mg/kg/day p.o.) was 100%, the “Compound 1 blood plasma level (day 27)” value (Lewis rats; 10 mg/kg/day p.o., 4 hours after oral administration) was 34.35 μg/ml and 34.35 μg/ μg/ml and the Surviving animals (Lewis rats; 25 mg/kg/day mini-infusion) was 17%. The “blood plasma levels, extrapolated from the values at lower doses” value (Lewis rats; 25 mg/kg/day mini-infusion pump) was ≤ 15000 ng/mL, the Body weight increase (Lewis rats; 25 mg/kg/day mini-infusion, determined in one surviving animal only) was “+13%*” and the survival (Lewis rats; 25 mg/kg/day orally administered) was “all animals”. The Body weight increase (Lewis rats; 25 mg/kg/day p.o.) was −2%, the Surviving animals (Lewis rats; 25 mg/kg/day p.o.) was 100% and the half-life [3] was ≤ 14.6 days. It also gave a half-life ([3]; approximately) of ~14 days.

Source: patent publication US6716411B2, “Method for finding nucleotide synthesis inhibitors having fewer side effects” (Aventis Pharma Deustschland GmbH, priority 1999, dated 2004)
